# In patent publication US20240294551A1 (AMGEN INC., priority 2022, published 2024):
# Like-named read-outs stand apart in the source and are kept apart here.
# What was measured:
# [1] = molecular target: GDP-bound KRAS protein (aa 1-169), containing both G12D and C118A amino acid substitutions (Homo sapiens (Human), UniProt P01116, C118A/G12D); test: KRAS G12D Coupled Nucleotide Exchange Assay; assay type: biochemical; settings: read-out: KRAS G12D Coupled Exchange IC50
# [2] = molecular target: His-tagged KRAS G12D protein (Homo sapiens (Human), UniProt P01116, G12D); test: KRAS G12D TR-FRET Assay; assay type: binding; settings: read-out: KRAS G12D Binding IC50
# Method in brief: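 Each incubation ran at room temperature: enzyme with compound for 30 minutes, peptide for one hour, and detection reagents (0.4 nM europium anti-6×His, 5 nM streptavidin-d2) for one hour more. Protein and peptide stocks were each diluted to 20 nM before addition.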
# [3] = system: Phosphorylation of ERK1/2 in AsPC-1 cells; test: Phospho-ERK1/2 MSD Assay; assay type: cell-based, human; settings: read-out: 2 h p-ERK (AsPC-1 cells), IC50
# Experimental: AsPC-1 (ATCC® CRL-1682™) cells were cultured in RPMI 1640 Medium (ThermoFisher Scientific 11875093) containing 10% fetal bovine serum (ThermoFisher Scientific 16000044) and 1× penicillin-streptomycin-glutamine (ThermoFisher Scientific 10378016). Sixteen hours prior to compound treatment, AsPC-1 cells were seeded in 96-well cell culture plates at a density of 25,000 cells/well and incubated at 37° C., 5% CO2. A compound dose-response titration was diluted in growth media, added to appropriate wells of a cell culture plate, and then incubated at 37° C., 5% CO2 for 2 hours. Following compound treatment, cells were washed with ice-cold Dulbecco's phosphate-buffered saline, no Ca^2+ or Mg^2+ (ThermoFisher Scientific 14190144), and then lysed in RIPA buffer (50 mM Tris-HCl pH 7.5, 1% Igepal, 0.5% sodium deoxycholate, 150 mM NaCl, and 0.5% sodium dodecyl sulfate) containing protease inhibitors (Roche 4693132001) and phosphatase inhibitors (Roche 4906837001). Phosphorylation of ERK1/2 in compound-treated lysates was assayed using Phospho-ERK1/2 Whole Cell Lysate kits (Meso Scale Discovery K151DWD) according to the manufacturer's protocol. Assay plates were read on a Meso Scale Discovery Sector Imager 6000, and data were analyzed using a 4-parameter logistic model to calculate IC50 values.
# His-tagged KRAS G12D protein, sequence (P01116 other isoform, or with tags, fused parts or gaps G12D): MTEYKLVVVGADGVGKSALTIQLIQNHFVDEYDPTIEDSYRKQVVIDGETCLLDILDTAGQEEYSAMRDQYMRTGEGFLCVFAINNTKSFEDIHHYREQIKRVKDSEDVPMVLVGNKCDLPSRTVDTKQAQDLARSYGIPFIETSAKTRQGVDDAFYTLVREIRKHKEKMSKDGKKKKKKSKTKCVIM
# GDP-bound KRAS protein (aa 1-169), containing both G12D and C118A amino acid substitutions, sequence (P01116 other isoform, or with tags, fused parts or gaps G12D/C118A): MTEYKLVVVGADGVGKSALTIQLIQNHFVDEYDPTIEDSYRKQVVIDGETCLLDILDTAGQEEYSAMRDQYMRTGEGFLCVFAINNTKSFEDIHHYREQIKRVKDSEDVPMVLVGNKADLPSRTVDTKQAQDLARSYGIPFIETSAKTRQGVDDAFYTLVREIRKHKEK
Compound,IC50 [1],IC50 [2],"IC50 ([3]; Homo sapiens, ASPC1, 2 h)",IC50 ([3]; 2 h)
"Cc1cc2[nH]ncc2c2c1CCC[C@H](F)C(=O)N[C@@H]1CCCN(C1)c1nc(OC[C@@]34CCCN3C[C@H](F)C4)nc3c(F)c-2ncc13 (mixture of isomers) [Example 49, (17R)-14,30-difluoro-24-(((2R,7aS)-2-fluorotetrahydro-1H-pyrrolo[1,2-a]pyrrol-7a(5H)-yl)methoxy)-9-methyl-5,6,16,21,23,25,29-heptaazahexacyclo[24.3.1.1~17,21~.0~2,10~.0~3,7~.0~22,27~]hentriaconta-1(30),2,4,7,9,22,24,26,28-nonaen-15-one]",5 nM,7 nM,116 nM,–
Cc1cc2[nH]ncc2c2c1CCCOC(=O)O[C@@H]1C[C@H](F)CN(C1)c1nc(OC[C@@]34CCCN3C[C@H](F)C4)nc3c(F)c-2ncc13 (racemic) [Example 95],36 nM,38 nM,2460 nM,–
Cc1cc2[nH]ncc2c2c1CCCCOC(=O)[C@@H]1CCCN(C1)c1nc(OC[C@@]34CCCN3C[C@H](F)C4)nc3c(F)c-2ncc13 [Example 108],14 nM,24 nM,386 nM,–
"Cc1cc2[nH]ncc2c2c1CCCn1ncc(n1)C1CCCN(C1)c1nc(OC[C@@]34CCCN3C[C@H](F)C4)nc3c(F)c-2ncc13 (stereo partly drawn) [Example 158, 31-Fluoro-25-(((2R,7aS)-2-fluorotetrahydro-1H-pyrrolo[1,2-a]pyrrol-7a(5H)-yl)methoxy)-9-methyl-5,6,14,15,22,24,26,30,33-nonaazaheptacyclo[25.3.1.1˜14,17˜.1˜18,22.0˜2,10˜.0˜3,7˜.0˜23,28˜]tritriaconta-1(31),2,4,7,9,15,17(33),23,25,27,29-undecaene]",6 nM,20 nM,–,278 nM
Cc1cc2[nH]ncc2c2c1CCCCC(=O)N[C@]1(C)COCCN(C1)c1nc(OC[C@@]34CCCN3C[C@H](F)C4)nc3c(F)c-2ncc13 (mixture of isomers) [Example 67],34 nM,46 nM,1660 nM,–
"CN1C(=O)CCCCc2c(Cl)cc3[nH]ncc3c2-c2cc3nc(OC[C@@]45CCCN4C[C@H](F)C5)nc(c3nn2)N2CCC[C@@H]1C2 [Example 73, (17R)-9-Chloro-24-(((2R,7aS)-2-fluorotetrahydro-1H-pyrrolo[1,2-a]pyrrol-7a(5H)-yl)methoxy)-16-methyl-5,6,16,21,23,25,28,29-octaazahexacyclo[24.3.1.1˜17,21˜.0˜2,10˜.0˜3,7˜.0˜22,27˜]hentriaconta-1(30),2,4,7,9,22,24,26,28-nonaen-15-one]",20 nM,29 nM,2070 nM,–
"CN1CCN(c2nc3c4cnc(c(F)c4n2)-c2c(c(Cl)cc4[nH]ncc24)CCCOC(=O)O[C@@H]2COCCN3C2)CC1 [Example 347, (26S)-18-chloro-32-fluoro-4-(4-methyl-1-piperazinyl)-23,25,28-trioxa-1,3,5,9,14,15-hexaazahexacyclo[24.4.1.1~6,10~.0~2,7~.0~11,19~.0~12,16~]dotriaconta-2,4,6,8,10(32),11,13,16,18-nonaen-24-one]",7 nM,27 nM,200 nM,–
Fc1c2ncc3c(nc(OC[C@@]45CCCN4C[C@H](F)C5)nc13)N1CCC[C@@H](COCCOCc3c(Cl)cc4[nH]ncc4c3-2)C1 [Example 142],15 nM,17 nM,247 nM,–
"Cc1cc2[nH]ncc2c2c1C[C@@H](C)COC(=O)O[C@@H]1CCCN(C1)c1nc(OC[C@@]34CCCN3C[C@H](F)C4)nc3c(F)c-2ncc13 (single isomer, unassigned) [Example 214]",18 nM,22 nM,496 nM,–
Cc1cc2[nH]ncc2c2c1CCCC(F)C(=O)N[C@@H]1COCCN(C1)c1nc(OC[C@@]34CCCN3C[C@H](F)C4)nc3c(F)c-2ncc13 (mixture of isomers) [Example 55],14 nM,19 nM,1380 nM,–
O=C1OCCCc2c(Cl)cc3[nH]ncc3c2-c2ncc3c(nc(OC[C@@]45CCCN4C[C@H](F)C5)nc3c2F)N2C[C@H]3C[C@H]3[C@H](C2)O1 (racemic) [Example 179],5 nM,9 nM,78.8 nM,–
